Results on 25 compounds are retold here after ChEMBL document CHEMBL4433226, “Unnatural Tripeptides as Potent Positive Allosteric Modulators of T1R2/T1R3” (ACS Med Chem Lett, 2019).

The target in experiment [1] is T1, T1R2/T1R3 (Homo sapiens) (UniProt Q8TE23+Q7RTX0). Briefly: Agonist activity at human T1R2/T1R3 expressed in PEAKrapid cells assessed as effect on intracellular calcium influx measured for 120 secs by fluorescence based assay. The class given is functional, cell-based. (Calcium flux is commonly read through the fluorescence of an indicator in the cells.)
The target of experiment [2] is T1, T1R2/T1R3 (Homo sapiens). Briefly: Positive allosteric modulator activity at human T1R2/T1R3 expressed in PEAKrapid cells assessed as potentiation of sucrose-induced intracellular calcium influx by measuring sucrose EC50 at 30 uM measured for 120 secs by fluorescence based assay relative to FEMA4774. The class given is functional, cell-based.
The species named for experiment [3] is Homo sapiens. Briefly: Sweetness enhancing activity in trained human panelists assessed as rating of perceived sweetness intensity of depicted sucrose solutions at 10 ppm co-treated with 5% sucrose relative to original level. It counts as functional.
For experiment [4], the target named is T1, T1R2/T1R3 (Homo sapiens). The experiment can be described thus: Positive allosteric modulator activity at human T1R2/T1R3 expressed in PEAKrapid cells assessed as potentiation of sucrose-induced intracellular calcium influx by measuring sucrose EC50 at 50 uM measured for 120 secs by fluorescence based assay relative to compound-2. It counts as functional, cell-based.

The source made the active and inactive calls. The calls are words filed in the database; no cut-off is given here.

For the compound `CC(C)[C@H](N)C(=O)NCc1ccc(-c2cncc(C(=O)O)c2N)o1`, the outcome in experiment [1] was inactive. Moreover, in experiment [2], the Efficacy turned out to be 52%.

Regarding `CC(C)(CC(=O)Nc1cncc(C(=O)O)c1N)NC(=O)[C@@H](N)C1CCCCC1.Cl.Cl`, in experiment [1], the result was inactive. Further, in experiment [2], the Efficacy is 67%. The “fold change (FC)” value in experiment [3] is 2.05.

For `Nc1c(NC(=O)CCCCCCNC(=O)[C@@H](N)C2CCCCC2)cncc1C(=O)O`, the result in experiment [1] was inactive. In addition, the Efficacy in experiment [2] stood at 36%.

`Cc1nc2cccc(OCC(C)(C)C(=O)NC(C)C)c2c(N)c1C(=O)O`: in experiment [1], the outcome was inactive. Also, the “fold change (FC)” value in experiment [3] is reported as 1.97.

With `CC[C@H](C)[C@H](N)C(=O)NCc1ccc(-c2cncc(C(=O)O)c2N)o1`, the result in experiment [1] was inactive. For the same compound, the Efficacy in experiment [2] came to 55%.

For the compound `Nc1c(NC(=O)CC[C@H](Cc2ccccc2)NC(=O)[C@@H](N)C2CCCCC2)cncc1C(=O)O`, the result in experiment [1] was inactive. Further, in experiment [2], the Efficacy was found to be 55%.

Regarding `Cc1nc2ccccc2c(N)c1C(=O)O`, the outcome in experiment [1] was inactive.

For the compound `Nc1c(C(=O)O)cncc1-c1ccccc1`, the result in experiment [1] was inactive. In addition, in experiment [4], the Efficacy amounted to 80%.

As for `CC(C)C[C@H](N)C(=O)NCc1ccc(-c2cncc(C(=O)O)c2N)o1`, the result in experiment [1] was inactive. In experiment [2], the Efficacy amounted to 61%.

In the case of `CC(C)C[C@@H](CC(=O)Nc1cncc(C(=O)O)c1N)NC(=O)[C@@H](N)C1CCCCC1`, the outcome in experiment [1] was inactive. Further, in experiment [2], the Efficacy is 38%.

In the case of `Cl.Cl.Nc1c(NC(=O)CCCCNC(=O)[C@@H](N)C2CCCCC2)cncc1C(=O)O`, the result in experiment [1] was inactive. The Efficacy in experiment [2] is 45%. Moreover, in experiment [3], the “fold change (FC)” value stood at 1.96.

For the compound `CC(C)CC(=O)NCc1ccc(-c2cncc(C(=O)O)c2N)o1`, in experiment [1], the result was inactive. For the same compound, in experiment [2], the Efficacy was 42%.

For `CC[C@H](C)[C@@H](CCC(=O)Nc1cncc(C(=O)O)c1N)NC(=O)[C@@H](N)C1CCCCC1`, in experiment [1], the result was inactive. Besides, in experiment [2], the Efficacy is 51%.

As to `C[C@@H](CC(=O)Nc1cncc(C(=O)O)c1N)NC(=O)[C@@H](N)C1CCCCC1`, the outcome in experiment [1] was inactive. Besides, the Efficacy in experiment [2] turned out to be 44%.

Consider `Cl.Cl.Nc1c(C(=O)O)cncc1-c1ccc(CNC(=O)[C@@H](N)C2CCCCC2)o1`, for which the outcome in experiment [1] was inactive. Besides, the Efficacy in experiment [2] stood at 72%. The “fold change (FC)” value in experiment [3] is 1.77.

With `CC(C)CNC(=O)C(=O)NCc1ccc(-c2cncc(C(=O)O)c2N)o1`, in experiment [1], the result was inactive. Besides, in experiment [2], the Efficacy was found to be 43%.

On to `CC(C)[C@@H](CC(=O)Nc1cncc(C(=O)O)c1N)NC(=O)[C@@H](N)C1CCCCC1`, for which the outcome in experiment [1] was inactive. In addition, in experiment [2], the Efficacy is 35%.

For the compound `CC(C)CNC(=O)NCc1ccc(-c2cncc(C(=O)O)c2N)o1`, in experiment [1], the result was inactive. In addition, in experiment [2], the Efficacy turned out to be 48%.

As for `Nc1c(C(=O)O)cncc1-c1ccco1`, the result in experiment [1] was inactive. Further, in experiment [4], the Efficacy was 83%.

For `CC(C)C(=O)NCc1ccc(-c2cncc(C(=O)O)c2N)o1`, in experiment [1], the result was inactive. In addition, the Efficacy in experiment [2] was 37%.

As to `Nc1c(C(=O)O)cncc1-c1cccs1`, the result in experiment [1] was inactive. Besides, the Efficacy in experiment [4] was determined as 85%.

Consider `CC(=O)NCc1ccc(-c2cncc(C(=O)O)c2N)o1`, for which, in experiment [1], the outcome was inactive. Besides, the Efficacy in experiment [2] was 33%.

On to `CC(C)(C)OC(=O)NCc1ccc(-c2cncc(C(=O)O)c2N)o1`, for which, in experiment [1], the outcome was inactive. Also, the Efficacy in experiment [2] was found to be 41%.

As for `Nc1c(NC(=O)CCCNC(=O)[C@@H](N)C2CCCCC2)cncc1C(=O)O`, in experiment [1], the outcome was inactive. In experiment [2], the Efficacy was 37%.

Take `CC(C)[C@@H](CCC(=O)Nc1cncc(C(=O)O)c1N)NC(=O)[C@@H](N)C1CCCCC1`: the result in experiment [1] was inactive. Further, the Efficacy in experiment [2] was 45%.
